According to patent publication US9435813B2, “Biomarkers of hemorrhagic shock” (The General Hospital Corporation, priority 2010, dated 2016):
“Also recorded” adds a separate entry of the source.

Assays:
22.7 kDa serum protein = assay: SELDI-TOF MS serum protein profiling in lethal hemorrhagic shock model; type: in vivo; conditions: rat, 60% blood loss, VPA 300 mg/kg via femoral vein, 24 hours after treatment
Experimental: (§1) An animal model of HS was used. Male Wistar-Kyoto rats (254.12±2.71 grams, Harlan, Indianapolis, Ind.) were used in the lethal model of hemorrhagic shock (Shults et al., J Trauma 2008; 64(3):629-638). Each animal's estimated blood volume was calculated using the formula: [estimated blood volume (mL)=weight (g)×0.06 (mL/g)+0.77]. About 1.3 mL of blood was manually drawn at the beginning and end of hemorrhage for analysis (included in the total hemorrhage calculation). The animals were hemorrhaged (40% of their calculated total blood volume) via a femoral arterial catheter over 10 minutes, followed by a 20% blood volume venous bleed over the next 50 minutes. Bleeding was performed using Kent Scientific adjustable pumps (Kent Scientific Corporation, N.J.). VPA (300 mg/kg) was administered via a femoral vein catheter after completion of hemorrhage. Blood pressure was monitored continuously during the experiment. The mean arterial pressure (MAP) in animals that were subjected to hemorrhage dropped sharply after bleeding to approximately 20 mm Hg. […]
ProteinChip profiling was performed on CM10 ProteinChip arrays (Ciphergen Biosystems, Fremont Calif.), as recommended by the manufacturer. […] The arrays were then inserted into a ProteinChip (Enterprise edition) TOF-MS and read at an optimized laser setting of 2000 nJ-5000 nJ. […]

claudin-3 [1] = assay: iTRAQ quantification of claudin-3 peptide in serum after hemorrhagic shock; type: in vivo; conditions: rat serum, 24 hours post-VPA 300 mg/kg; BL to HS ratio 0.323
Experimental: as §1
Immunodepletion of serum abundant proteins was performed as follows. […] Column performance was monitored by sodium dodecyl sulphate-polyacrylamide gel electrophoresis (SDS-PAGE) followed by Coomassie Blue staining (BioBlue, BioRad). […]

claudin-3 [2] = assay: Western blot of serum claudin-3 after hemorrhagic shock; type: in vivo; conditions: rat serum, 1 hour following VPA treatment; two bands seen in HS 1 hour group
Experimental: An animal model of HS was used. Male Wistar-Kyoto rats (254.12±2.71 grams, Harlan, Indianapolis, Ind.) were used in the lethal model of hemorrhagic shock (Shults et al., J Trauma 2008; 64(3):629-638). Each animal's estimated blood volume was calculated using the formula: [estimated blood volume (mL)=weight (g)×0.06 (mL/g)+0.77]. About 1.3 mL of blood was manually drawn at the beginning and end of hemorrhage for analysis (included in the total hemorrhage calculation). The animals were hemorrhaged (40% of their calculated total blood volume) via a femoral arterial catheter over 10 minutes, followed by a 20% blood volume venous bleed over the next 50 minutes. Bleeding was performed using Kent Scientific adjustable pumps (Kent Scientific Corporation, N.J.). VPA (300 mg/kg) was administered via a femoral vein catheter after completion of hemorrhage. Blood pressure was monitored continuously during the experiment. […]
To assess whether claudin-3 is a potential biomarker, independent serum samples were taken of sham (no hemorrhage and no treatment), HS 1 hour (1 hour following hemorrhagic shock), and VPA 1 hour (1 hour following VPA treatment) from individual rats and the level of the candidate biomarker was determined by Western blot with anti-claudin-3 antibody. […]

claudin-3 [3] = assay: Western blot of intestinal claudin-3 protein after hemorrhagic shock; type: in vivo; conditions: rat intestine, 1, 6, and 24 hours after VPA treatment
Experimental: as §1, with “experiment.” for “experiment. The mean arterial pressure (MAP) in animals that were subjected to hemorrhage dropped sharply after bleeding to approximately 20 mm Hg.”
Claudin-3 is a TJ protein that has important roles in establishing epithelial and endothelial barriers. To find out whether HS and VPA treatment affect claudin-3 protein in TJ of epithelial cells, protein expression was analyzed in intestinal tissue obtained from sham, HS 1 hour (1 hour after hemorrhagic shock), and VPA-treated animals (1 hour, 6 hours, and 24 hours after treatment). […]

claudin-3 mRNA = assay: RT-PCR of intestinal claudin-3 mRNA after hemorrhagic shock; type: in vivo; conditions: rat intestine, 1, 6 and 24 hours
Experimental: To assess whether gene expression of claudin-3 responds to HS and VPA treatment, the mRNA expression of rat intestines among the groups of sham, HS and VPA treatment was compared at 1, 6 and 24 hours using RT-PCR methods.

hemorrhagic shock [4] = assay: Survival in lethal model of hemorrhagic shock; type: in vivo; conditions: rat, HS 60% blood loss, VPA 300 mg/kg; untreated animals did not survive
Experimental: as §1
Male Wistar-Kyoto rats underwent HS (60% blood loss) followed by treatment with or without VPA (300 mg/kg). Serum samples were obtained at baseline (BL), end of hemorrhage (EH), and after VPA treatment (VPA), and subjected to iTRAQ and analyzed by liquid chromatography-tandem mass spectrometry (LC-MS/MS). […]

CINC-1 [5] = assay: Serum CINC-1, multiplex electrochemiluminescence assay, sub-lethal hemorrhagic shock; type: in vivo; conditions: rat, 40% blood volume hemorrhage, VPA 300 mg/kg IV vs vehicle
Experimental: (§2) Anesthetized Wistar-Kyoto rats (250-300 g) underwent 40% blood volume hemorrhage over 10 minutes followed by 30 minutes of un-resuscitated shock and were treated with 1) VPA 300 mg/kg or 2) vehicle control. Blood samples were obtained at baseline, following shock, and prior to sacrifice (1 hour, 4 hours, and 20 hours; n=3-4/time point/group). Serum samples were screened for possible biomarkers using a multiplex electrochemiluminescence detection assay, and results were confirmed using ELISA. Additionally, lung tissue lysate was examined for chemokine and myeloperoxidase (MPO) levels as markers for neutrophil infiltration and ALI. Additionally, lung CINC-1 (a chemokine belonging to the IL-8 family that promotes neutrophil chemotaxis) mRNA levels were measured by real-time PCR.
Animals were hemorrhaged 40% of their total blood volume to induce sub-lethal HS, and were sacrificed at 1, 4, and 20 hours following hemorrhage and treatment. This degree of blood loss was selected to allow 100% of animals in all groups to survive until the designated time of sacrifice. Selected laboratory values were measured, and were indicative of moderate HS (mean lactate 0.6 mmol/L at baseline, 4.3 mmol/L after hemorrhage; mean baseline hemoglobin 12.0 g/dL at baseline, 9.6 g/dL after hemorrhage). […]

CINC-1 [6] = assay: Serum CINC-1 ELISA, sub-lethal hemorrhagic shock; type: in vivo; conditions: rat, 40% blood volume hemorrhage, VPA 300 mg/kg IV vs vehicle, 4 hours, p<0.05
Experimental: as §2
(§3) Animals were hemorrhaged 40% of their total blood volume to induce sub-lethal HS, and were sacrificed at 1, 4, and 20 hours following hemorrhage and treatment. This degree of blood loss was selected to allow 100% of animals in all groups to survive until the designated time of sacrifice. Selected laboratory values were measured, and were indicative of moderate HS (mean lactate 0.6 mmol/L at baseline, 4.3 mmol/L after hemorrhage; mean baseline hemoglobin 12.0 g/dL at baseline, 9.6 g/dL after hemorrhage).
Conventional ELISA was used to confirm the data obtained using the multiplex electrochemiluminescence assay.

CINC-1 [7] = assay: Lung tissue CINC-1 ELISA, sub-lethal hemorrhagic shock; type: in vivo; conditions: rat, 40% blood volume hemorrhage, VPA 300 mg/kg IV vs vehicle, 20 hour time point, p=0.17
Experimental: as §2, §3
ELISA was used to measure CINC-1 levels in lung whole tissue extract (n=3-4/time point/group).

myeloperoxidase (MPO) = assay: Lung tissue myeloperoxidase (MPO) level, sub-lethal hemorrhagic shock; type: in vivo; conditions: rat, 40% blood volume hemorrhage, VPA 300 mg/kg IV vs vehicle, 20 hour time point, p<0.05
Experimental: as §2
(§4) Animals were hemorrhaged 40% of their total blood volume to induce sub-lethal HS, and were sacrificed at 1, 4, and 20 hours following hemorrhage and treatment. […] Selected laboratory values were measured, and were indicative of moderate HS (mean lactate 0.6 mmol/L at baseline, 4.3 mmol/L after hemorrhage; mean baseline hemoglobin 12.0 g/dL at baseline, 9.6 g/dL after hemorrhage).
Myeloperoxidase (MPO) levels were measured in lung whole tissue extract as a marker for neutrophil infiltration (n=3-4/time point/group).

CINC-1 mRNA = assay: Lung CINC-1 mRNA by real-time PCR, sub-lethal hemorrhagic shock; type: in vivo; conditions: rat, 40% blood volume hemorrhage, VPA 300 mg/kg IV vs vehicle, 1, 4 and 20 hours
Experimental: as §2, §4
To rule out possibility that an increase of CINC-1 protein in lung results from induction of the gene expression, lung tissue was assessed for CINC-1 mRNA levels (n=3-4/time point/group). […]

acute lung injury = assay: Acute lung injury (ALI) following hemorrhagic shock; type: in vivo; conditions: rat, 40% blood volume hemorrhage, VPA 300 mg/kg
hemorrhagic shock [8] = conditions: rats, literature (Shults et al. 2008; Li et al. 2008; WO 2007117272); cited from earlier work

CCCC(CCC)C(=O)O [VPA, Valproic acid]
serum level of 22.7 kDa protein (SELDI-TOF MS) versus HS (22.7 kDa serum protein): down-regulated | ratio of VPA to HS, claudin-3 peptide isobaric tag signal in serum (claudin-3 [1]): 0.425 | serum claudin-3 by Western blot (claudin-3 [2]): no claudin-3 was detected | intestinal claudin-3 protein level by Western blot (claudin-3 [3]): significantly attenuated the HS-induced reduction of claudin-3 | intestinal claudin-3 mRNA expression (claudin-3 mRNA): did not significantly change | survival after hemorrhagic shock (hemorrhagic shock [4]): significantly improved survival; also recorded: survived | HS-induced rise of serum CINC-1 (multiplex electrochemiluminescence assay) (CINC-1 [5]): appeared to be attenuated | HS-induced increase of circulating CINC-1 (ELISA) (CINC-1 [6]): significantly attenuated this effect | effects on lung CINC-1 levels (CINC-1 [7]): not statistically significant | HS-induced increase of lung MPO levels (myeloperoxidase (MPO)): significantly attenuated this effect | lung CINC-1 mRNA levels (CINC-1 mRNA): no significant changes between groups | development of ALI after hemorrhage (acute lung injury): inhibited and reduced | survival after lethal HS (hemorrhagic shock [8]): improves survival
